Converted amounts (≈) assume the structure as drawn.
Columns and labels:
[1] = Release of anti-microbial agent from chewing gum composition after 10 minutes of chewing; assay type: physicochemical; details: for Q factor (100/percentage released): chewing gum composition; for Release Rate (%) After 10 Minutes of Chewing: chewing gum compositions
Method: The germ kill potential (P) therefore is determined by the product of the concentration of at least one anti-microbial agent contained in the composition and the germ kill rating of each anti-microbial agent. The result is in turn multiplied by the mass of the composition and a factor Q as defined previously which is a measure of how easily the anti-microbial agent is released from the oral composition into the oral cavity. The Q factor may be readily determined for a given oral composition by comparing the amount of the anti-microbial agent present in the oral composition before placement in the oral cavity and how much remains after placement in the oral cavity for a fixed period of time. For other compositions such as chewing gum compositions, the release rate of the anti-microbial agent is much slower. Typically only a portion of the anti-microbial agent is released instantaneously and/or on initial chewing. For example, the release rate of anti-microbial agents after 10 minutes of chewing can be as low as less than 10%. […] Thus, the factor Q is 11.1 (100%/9%). The targeted (P) value selected for the chewing gum composition would therefore have to be about 11.1 times greater than the (P) value for the corresponding pressed mint composition.

[2] = test system: microorganisms found in the oral cavity; assay: Minimum inhibitory concentration (MIC) of anti-microbial agent; assay type: cell-based
Source text: The germ kill rating (R) of each anti-microbial agent used in the oral composition is the ratio of the maximum acceptable taste concentration (ATC) of the anti-microbial agent and the minimum inhibitory concentration (MIC). The germ kill rating (R) is therefore a value representative of the suitability of a particular anti-microbial agent to provide a balance between acceptable taste and germ killing efficacy. A relatively high (R) value is indicative of an anti-microbial agent that can be used in a relatively large range of concentrations without adversely effecting taste while still obtaining the desired germ kill properties. […] However, thymol has a very low maximum acceptable taste concentration and therefore provides a germ kill rating (R) of 1.1 which is lower than the other four essential oils in Table 2 even though the other essential oils have a higher minimum inhibitory concentration.

[3] = test system: microorganisms found in the oral cavity; assay: Germ kill rating (R), ratio of ATC and MIC; details: mint lozenge having a weight of 1.5 grams
Source text: The germ kill rating (R) is therefore a quantitative indication of the range of concentrations of the anti-microbial agent (i.e. effective concentration range) that may be employed to achieve both the desirable germ kill properties and acceptable taste. By way of example, an anti-microbial agent having a germ kill rating of 10 has an effective concentration range twice as large as an anti-microbial agent having a germ kill rating of 5. The germ kill rating (R) of each anti-microbial agent used in the oral composition is the ratio of the maximum acceptable taste concentration (ATC) of the anti-microbial agent and the minimum inhibitory concentration (MIC). The germ kill rating (R) is therefore a value representative of the suitability of a particular anti-microbial agent to provide a balance between acceptable taste and germ killing efficacy. A relatively high (R) value is indicative of an anti-microbial agent that can be used in a relatively large range of concentrations without adversely effecting taste while still obtaining the desired germ kill properties. […] The maximum acceptable taste concentration (ATC) of an anti-microbial agent can be determined through known population sampling methods. […] The results are averaged and analyzed according to known statistical methods to yield the ATC value for a particular anti-microbial agent in a given solid carrier (e.g. mint lozenge). […]

| SMILES | Q factor (100/percentage released) [1] | Release Rate (%) After 10 Minutes of Chewing [1] | Release Rate (%) After 10 Minutes of Chewing ([1]; listed as eucalyptol) | MIC [2] | Germ Kill Rating (R) [3] |
| --- | --- | --- | --- | --- | --- |
| CC12CCC(CC1)C(C)(C)O2 [Eucalyptol] | 5.025 | 19.9% | 19.9% |  |  |
| CC1CCC(C(C)C)C(O)C1 (centres unmarked) [Menthol] | 11.1 | 9% |  | 500 µg/mL (≈ 3200 µM) | 24 |
| CC(C)[C@@H]1CC[C@@H](C)CC1=O [Menthone] |  | 10.4% |  |  |  |
| COC(=O)c1ccccc1O [Methyl Salicylate] |  | 8.9% |  |  |  |
| Cc1ccc(C(C)C)c(O)c1 [Thymol] |  |  |  | 87 µg/mL (≈ 579 µM) | 1.1 |
